# From patent publication US6350251B1, “Biocidal locks” (Biolink Corporation, priority 2000, dated 2002)
# Experiments:
# Candida albicans [1] = conditions: oral isolate of Candida albicans to human buccal epithelial cells; concentration dependent; cited from earlier work
# E. coli [2] = conditions: urine isolate of E. coli to human uroepithelial cells; concentration dependent; cited from earlier work
# S. epidermis = conditions: cited from earlier work
# Enterococcus = assay: Inoculated DIALOCK port/catheter filled with lock solution, flush cultured on blood agar (Example 7); format: cell-based; set-up: key: TNTC: Too numerous to count; conditions: inoculum 10 cfu/0.1 mL; 2% citrated taurolidine or 5000 U/mL heparin (with preservative); 37° C. for 72 hours
# Description: (§1) Clinical blood isolates of coagulase negative staphylococcus, Candida albicans, Staphylococcus aureus, Enterococcus, and Pseudomonas aeruginosa were inoculated into trypticase soy broth and allowed to incubate at 37° C. until the cultures were visibly turbid. Serial dilutions were made to obtain a final cell density of 10 colony forming units (cfu)/0.1 mL for S. aureus, Enterococcus, and Pseudomonas aeruginosa; 5 cfu/0.1 mL for Candida; 100 cfu/0.1 mL for coagulase negative staph. and Enterobacter. From the final dilution, 0.1 mL was instilled into each distal end of a DIALOCK port tube, and the DIALOCK port was incubated at room temperature overnight. After incubation, a regular silicon catheter was placed on the distal end of both sides of each DIALOCK port. A solution of 5000 U/mL of heparin (with preservative) or 2% citrated taurolidine was instilled through the proximal end of the DIALOCK port to fill the DIALOCK port and catheter. The catheter was clamped and the DIALOCK port/catheter was incubated at 37° C. for 72 hours. Following this incubation, both catheters were removed from each DIALOCK port and each was flushed with 0.1 mL of nutrient broth.
# Enterobacter = assay: as above; format: cell-based; set-up: key: TNTC: Too numerous to count; conditions: inoculum 100 cfu/0.1 mL; 2% citrated taurolidine or 5000 U/mL heparin (with preservative); 37° C. for 72 hours
# Description: as §1
# Staphylococcus aureus = assay: as above; format: cell-based; set-up: key: TNTC: Too numerous to count; conditions: inoculum 10 cfu/0.1 mL; 2% citrated taurolidine or 5000 U/mL heparin (with preservative); 37° C. for 72 hours
# Description: as §1
# Pseudomonas aeruginosa = assay: as above; format: cell-based; set-up: key: TNTC: Too numerous to count; conditions: inoculum 10 cfu/0.1 mL; 2% citrated taurolidine or 5000 U/mL heparin (with preservative); 37° C. for 72 hours
# Description: as §1
# Candida albicans [3] = assay: as above; format: cell-based; set-up: key to organisms remaining, DIALOCK port flush: TNTC: Too numerous to count; conditions: inoculum 5 cfu/0.1 mL; 2% citrated taurolidine or 5000 U/mL heparin (with preservative); 37° C. for 72 hours
# Description: as §1
# [4] = tested on: coagulase negative staphylococcus; assay: as above; format: cell-based; set-up: key to organisms remaining, DIALOCK port flush: TNTC: Too numerous to count; conditions: inoculum 100 cfu/0.1 mL; 2% citrated taurolidine or 5000 U/mL heparin (with preservative); 37° C. for 72 hours
# Description: as §1
# blood = assay: Clotting of pig blood in containers holding taurolidine solution with or without ACD-A (Example 1); conditions: pig blood filled up to 30 mL over 5, 10 or 15 mL 0.5% taurolidine in Ringer-lactate, or 5 mL taurolidine solution plus 2 mL ACD-A; inspected after 30 minutes
# Description: A 0.5% solution of taurolidine in Ringer-lactate solution (Thomae, Biberach, Germany) was introduced into each of four polyethylene bottles having a 30 mL volume. Filling volumes were 5, 10, and 15 mL. One bottle was filled with 5 mL of the taurolidine solution and 2 mL ACD-A (Fresenius, Bad Homburg, Germany) solution. ACD-A solution is used for the conservation of whole blood and contains per liter: 22.0 grams of sodium citrate dihydrate, 7.3 grams of citric acid and 34.5 grams of glucose monohydrate.
# Blood was collected at a slaughter house from a female pig directly from the slaughter wound into the containers that were then filled up to the 30 mL level. The containers were capped and gently moved to mix blood with the solution. The containers were inspected after 30 minutes. Blood in the containers containing only taurolidine was clotted, but the blood in the container containing the mixture of taurolidine and ACD-A was not clotted.
# [5] = clinical, bacteriologic outcomes, endotoxemia, organ failure, 28-day mortality rate as end points; cited from earlier work
# B. fragilis = conditions: mice, intravenous 0.2 mL of a 20% solution in sterile 5% polyvinyl pyrrolidone; intraperitoneal B. fragilis; cited from earlier work
# [6] = tested on: Vancomycin-Internediate Susceptibility Staphylococcus A ureus (VISA) and Methicillin-Resistant Staphylococcus Aureus (MRSA); conditions: range of from pH 7.0 to pH 5.0; cited from earlier work
# E. coli [7] = conditions: mice, intravenous 0.2 mL of a 20% solution in sterile 5% polyvinyl pyrrolidone; intraperitoneal E. coli; cited from earlier work
Molecule,microbial anti-adherence activity (Candida albicans [1]),microbial anti-adherence activity (E. coli [2]),"organisms remaining, Catheter flush (Enterococcus)","organisms remaining, DIALOCK port flush (Enterococcus)","organisms remaining, Catheter flush (Enterobacter)","organisms remaining, DIALOCK port flush (Enterobacter)","organisms remaining, Catheter flush (Staphylococcus aureus)","organisms remaining, DIALOCK port flush (Staphylococcus aureus)","organisms remaining, Catheter flush (Pseudomonas aeruginosa)","organisms remaining, DIALOCK port flush (Pseudomonas aeruginosa)","organisms remaining, Catheter flush (Candida albicans [3])","organisms remaining, DIALOCK port flush (Candida albicans [3])","organisms remaining, Catheter flush [4]","organisms remaining, DIALOCK port flush [4]",other results
povidone-iodine,significant anti-adherence activity,significant anti-adherence activity,,,,,,,,,,,,,
O=C([O-])CN(CCN(CC(=O)[O-])CC(=O)O)CC(=O)O.[Na+].[Na+] [disodium EDTA],,,,,,,,,,,,,,,"concentration shown to be bactericidal (S. epidermis; initial inoculum of 10^3 CFU of staphylococci per mL, in 24 hours): 20 mg/mL"
Heparin,,,TNTC,TNTC,TNTC,TNTC,TNTC,TNTC,TNTC,TNTC,20 cfu,TNTC,No growth,TNTC,inhibition of growth of S. epidermis (S. epidermis; isolate from the catheter of an infected patient): does not inhibit the growth
"O=S1(=O)CCN(CN2CCS(=O)(=O)NC2)CN1 [taurolidine, bis-(1,1-dioxo-perhydroxy-1,2,4-thiadiazin-4-yl)methane]",significant anti-adherence activity,significant anti-adherence activity,No growth,No growth,No growth,No growth,No growth,No growth,No growth**,No growth,No growth*,No growth,No growth,No growth,state of blood in the containers (blood): clotted; therapeutic effect on the outcome of patients with sepsis syndrome [5]: no beneficial therapeutic effect; mortality rate (B. fragilis): very significantly reduce the mortality rate; taurolidine activity versus pH [6]: increases with decreasing pH; mortality rate (E. coli [7]): very significantly reduce the mortality rate
[H]/N=C(\N/C(=N/[H])NCCCCCCNC(=N)NC(=N)Nc1ccc(Cl)cc1)Nc1ccc(Cl)cc1 [chlorhexidine],significant anti-adherence activity,significant anti-adherence activity,,,,,,,,,,,,,
CN[C@H](CC(C)C)C(=O)N[C@H]1C(=O)N[C@@H](CC(N)=O)C(=O)N[C@H]2C(=O)N[C@H]3C(=O)N[C@H](C(=O)N[C@H](C(=O)O)c4cc(O)cc(O)c4-c4cc3ccc4O)[C@H](O)c3ccc(c(Cl)c3)Oc3cc2cc(c3O[C@@H]2O[C@H](CO)[C@@H](O)[C@H](O)[C@H]2O[C@H]2C[C@](C)(N)[C@H](O)[C@H](C)O2)Oc2ccc(cc2Cl)[C@H]1O [Vancomycin],,,,,,,,,,,,,,,dose found to be bactericidal (S. epidermis; initial inocula of 10^3 CFU/mL): 6.7 µg/mL
